The text below walks through data of ChEMBL document CHEMBL1157388, “Recent developments in fragment-based drug discovery” (J Med Chem, 2008).

The target of one test is Carbonic anhydrase 2 (Bos taurus, UniProt P00921).
Test [1] deals with Heat shock protein HSP 90-beta (Homo sapiens, UniProt P08238).
The next test concerns the target T1, Aurora kinase A (Homo sapiens, UniProt O14965).
T1 sequence (O14965 whole entry): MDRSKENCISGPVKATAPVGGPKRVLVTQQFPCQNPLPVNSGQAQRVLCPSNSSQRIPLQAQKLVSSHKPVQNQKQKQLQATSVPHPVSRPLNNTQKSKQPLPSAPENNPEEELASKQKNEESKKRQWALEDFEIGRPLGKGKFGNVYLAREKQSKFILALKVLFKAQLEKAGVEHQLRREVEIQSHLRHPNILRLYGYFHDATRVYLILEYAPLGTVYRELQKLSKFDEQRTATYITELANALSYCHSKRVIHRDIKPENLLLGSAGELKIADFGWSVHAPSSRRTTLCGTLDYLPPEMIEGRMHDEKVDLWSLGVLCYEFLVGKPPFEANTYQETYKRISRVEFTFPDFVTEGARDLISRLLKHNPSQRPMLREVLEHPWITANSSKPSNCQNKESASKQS

The target in a further test is Prothrombin (Homo sapiens, UniProt P00734). The test can be described thus: Inhibition of thrombin.
Test [2] has as its target RAC-alpha serine/threonine-protein kinase (Homo sapiens, UniProt P31749). The test can be described thus: Inhibition of protein kinase B.
Test [3] deals with T2, Queuine tRNA-ribosyltransferase catalytic subunit 1 (Homo sapiens, UniProt Q9BXR0).
T2 sequence (Q9BXR0 whole entry): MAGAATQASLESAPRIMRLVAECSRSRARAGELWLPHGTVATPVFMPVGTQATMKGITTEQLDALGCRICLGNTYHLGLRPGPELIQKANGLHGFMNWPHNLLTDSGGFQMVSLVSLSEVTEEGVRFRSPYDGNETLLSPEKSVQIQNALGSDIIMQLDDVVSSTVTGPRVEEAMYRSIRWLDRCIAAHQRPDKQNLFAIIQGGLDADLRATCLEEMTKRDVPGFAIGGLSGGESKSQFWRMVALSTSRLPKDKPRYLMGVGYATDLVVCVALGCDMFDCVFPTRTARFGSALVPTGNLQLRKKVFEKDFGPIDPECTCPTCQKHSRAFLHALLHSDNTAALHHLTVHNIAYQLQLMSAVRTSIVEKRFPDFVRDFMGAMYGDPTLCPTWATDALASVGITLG

The next test addresses T3, Caspase-1 (Homo sapiens, UniProt P29466).
T3 sequence (P29466 whole entry): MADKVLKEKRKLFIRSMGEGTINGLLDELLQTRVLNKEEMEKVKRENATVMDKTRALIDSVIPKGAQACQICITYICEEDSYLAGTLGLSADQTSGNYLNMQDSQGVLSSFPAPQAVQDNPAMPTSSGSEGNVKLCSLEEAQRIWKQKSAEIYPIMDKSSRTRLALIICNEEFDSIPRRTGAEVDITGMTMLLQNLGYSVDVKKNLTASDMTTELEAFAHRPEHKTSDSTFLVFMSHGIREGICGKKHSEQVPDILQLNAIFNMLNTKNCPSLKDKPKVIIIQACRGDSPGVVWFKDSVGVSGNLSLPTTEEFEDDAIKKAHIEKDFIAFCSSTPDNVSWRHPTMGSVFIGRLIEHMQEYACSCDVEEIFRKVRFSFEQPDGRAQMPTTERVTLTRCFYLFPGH
Description: Inhibition of caspase 1.

The nature of test [4]: Inhibition of PDE4.
In test [5] the target is Urokinase-type plasminogen activator (Homo sapiens, UniProt P00749).

Chain of Carbonic anhydrase 2 (P00921 whole entry): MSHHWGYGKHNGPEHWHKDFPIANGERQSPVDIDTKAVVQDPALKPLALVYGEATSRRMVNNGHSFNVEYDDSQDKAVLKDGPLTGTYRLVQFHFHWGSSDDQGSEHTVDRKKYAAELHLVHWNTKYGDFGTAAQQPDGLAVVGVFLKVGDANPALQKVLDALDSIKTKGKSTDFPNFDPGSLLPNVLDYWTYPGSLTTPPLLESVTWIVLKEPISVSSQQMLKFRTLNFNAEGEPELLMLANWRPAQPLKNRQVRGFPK
Chain of Heat shock protein HSP 90-beta (P08238 whole entry): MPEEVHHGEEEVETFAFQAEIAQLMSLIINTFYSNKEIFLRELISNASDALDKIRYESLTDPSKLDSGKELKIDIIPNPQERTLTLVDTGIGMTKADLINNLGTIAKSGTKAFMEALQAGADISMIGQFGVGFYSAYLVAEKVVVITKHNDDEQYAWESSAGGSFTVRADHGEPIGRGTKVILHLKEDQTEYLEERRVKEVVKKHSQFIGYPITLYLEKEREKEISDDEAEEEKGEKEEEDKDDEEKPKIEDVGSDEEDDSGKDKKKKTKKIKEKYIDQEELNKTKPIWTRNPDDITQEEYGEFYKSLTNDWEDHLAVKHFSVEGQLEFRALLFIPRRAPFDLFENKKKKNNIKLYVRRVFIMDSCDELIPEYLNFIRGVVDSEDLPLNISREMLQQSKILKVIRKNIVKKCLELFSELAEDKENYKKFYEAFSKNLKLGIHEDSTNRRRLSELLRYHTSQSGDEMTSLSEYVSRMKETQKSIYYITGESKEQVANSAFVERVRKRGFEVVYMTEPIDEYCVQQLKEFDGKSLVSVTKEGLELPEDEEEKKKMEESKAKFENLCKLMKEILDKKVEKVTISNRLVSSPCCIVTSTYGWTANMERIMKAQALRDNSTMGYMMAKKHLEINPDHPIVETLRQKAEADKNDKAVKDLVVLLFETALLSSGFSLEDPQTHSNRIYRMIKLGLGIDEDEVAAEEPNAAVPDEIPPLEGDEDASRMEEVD
Chain of RAC-alpha serine/threonine-protein kinase (P31749 whole entry): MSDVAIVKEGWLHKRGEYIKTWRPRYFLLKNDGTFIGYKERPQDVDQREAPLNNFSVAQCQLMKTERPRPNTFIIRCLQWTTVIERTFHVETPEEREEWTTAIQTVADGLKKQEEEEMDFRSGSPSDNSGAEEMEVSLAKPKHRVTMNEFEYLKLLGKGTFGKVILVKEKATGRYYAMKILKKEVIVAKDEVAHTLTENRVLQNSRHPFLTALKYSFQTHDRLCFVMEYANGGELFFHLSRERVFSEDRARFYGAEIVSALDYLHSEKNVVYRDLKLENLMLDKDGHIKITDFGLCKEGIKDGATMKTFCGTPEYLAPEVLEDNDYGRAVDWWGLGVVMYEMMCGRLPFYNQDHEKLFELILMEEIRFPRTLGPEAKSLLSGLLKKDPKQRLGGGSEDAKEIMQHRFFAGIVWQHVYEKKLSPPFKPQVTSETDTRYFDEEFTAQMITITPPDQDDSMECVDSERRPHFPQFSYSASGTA

`C#Cc1ccc(S(N)(=O)=O)cc1` registered a Kd on Carbonic anhydrase 2 of 0.037 µM.
`O=C1OCC/C1=C\Nc1ccccc1` registered a Kd in test [1] of 150 µM.
For `Nc1ccc(S(=O)(=O)Nc2ncccn2)cc1` [SULFADIAZINE], the IC50 at Aurora kinase A is 21 µM.
The compound `COc1ccc(S(=O)(=O)NC[C@@H](O)[C@H](Cc2ccccc2)NCc2cc(Cl)ccc2-n2cnnn2)cc1` yielded an IC50 against Prothrombin of 0.004 µM.
In turn, `COc1cc2[nH]c3ncnc(N4CCN(C(=S)Nc5ccc(S(=O)(=O)Nc6ncccn6)cc5)CC4)c3c2cc1OC` returned an IC50 against Aurora kinase A of 0.094 µM.
Turning to `c1ccc(-c2cn[nH]c2)cc1`, half-maximal inhibition in [2] (IC50) required 135 µM.
As to `Nc1nc2ccccc2c(=O)[nH]1`, the Ki in test [3] was 2.1 µM.
For the compound `Cc1cc(C#Cc2ccccc2/C=N/N2CCOC2=O)nc(N)n1`, the Kd in [1] turned out to be 4 µM.
In [3], `COc1ccc(CCc2c3nc[nH]c3cc3c(=O)[nH]c(N)nc23)cc1` came in with a Ki of 3.7 µM.
For the compound `O=C[C@H](CC(=O)O)NC(=O)CCCCCNC(=O)c1ccc(Nc2cnc3ccccc3n2)cc1`, at Caspase-1, it took 0.19 µM to reach half-maximal inhibition (IC50).
For the compound `CCOC(=O)c1c(C)nn(-c2ccccc2Cl)c1C`, in test [4], half-maximal inhibition (IC50) was put at 0.019 µM.
Compound `CC(C)[C@@H](C(=O)N1CC2CCC(CC2)C1)n1cc(-c2ccc(S(N)(=O)=O)cc2)nn1` registered a Kd on Carbonic anhydrase 2 of 0.0002 µM.
`Nc1nc2cc(O)ccc2[nH]1` yielded an IC50 in [5] of 200 µM.
In turn, `COc1cc2[nH]c3ncnc(Cl)c3c2cc1OC` came in with an IC50 against Aurora kinase A of 3 µM.
Turning to `O=C[C@H](CC(=O)O)NC(=O)c1ccc(CNC(=O)c2ccc(Nc3cnc4ccccc4n3)cc2)nc1`, the IC50 on Caspase-1 stood at 0.005 µM.
